In patent publication US20170273922A1, “UREA AND BIS-UREA BASED COMPOUNDS AND ANALOGUES THEREOF USEFUL IN THE TREATMENT OF ANDROGEN RECEPTOR MEDIATED DISEASES OR DISORDERS” (THE ROYAL INSTITUTION FOR THE ADVACEMENT OF LEARNING/MCGILL …, priority 2014, published 2017):

Assays:
Format in all cases: cell-based
22Rv1 cells = experiment: MTT assay (cytotoxicity), 22Rv1 cells; settings: 72 h
Experimental: (§1) MTT assays: LNCaP, 22Rv1, Du145, H1975, A549, MB231 and MCF-7 cells are maintained in RPMI 1640 supplemented with 10% FBS. Cells were seeded at a density of 6-7×10^3 cells per well in 96-well plates. After overnight incubation, cells in fresh RPMI 1640 supplemented with 10% FBS were exposed to DMSO vehicle control or test compounds at designated concentrations for 72 h. Viable cells were evaluated by MTT assays. Experiments were performed in triplicate and repeated at least twice.

LNCaP cells = experiment: MTT assay (cytotoxicity), LNCaP cells; settings: 72 h
Experimental: as §1

DU145 cells = experiment: MTT assay (cytotoxicity), DU145 cells; settings: 72 h
Experimental: as §1

[1] = MTT assay (cytotoxicity), 22Rv1 cells; settings: human, 22Rv1 cells, 72 h
Experimental: as §1

[2] = MTT assay (cytotoxicity), DU145 cells; settings: human, DU145 cells
Experimental: as §1

[3] = MTT assay (cytotoxicity), LNCaP cells; settings: human, LNCaP cells, 72 h
Experimental: as §1

Row | Compound | IC50 (22Rv1 cells; Table 2.2) [µM] | IC50 (LNCaP cells; Table 2.2) [µM] | IC50 (DU145 cells; Table 2.2) [µM] | other results
1 | O=C(N/C=C/c1cccc(F)c1)Nc1ccc([N+](=O)[O-])c(C(F)(F)F)c1 [Compound 412] | > 20 | 18.8 | – | –
2 | O=C(N/C=C/c1cccc(F)c1)Nc1cccc(C(F)(F)F)c1 [Compound 414] | 8.2 | 3.8 | 7.8 | –
3 | O=C(N/C=C/c1ccccc1)Nc1cccc(C(F)(F)F)c1 [Compound 415] | 11 | 6.6 | 14 | –
4 | N#Cc1ccc(NC(=O)N/C=C/c2cccc(C(F)(F)F)c2)cc1 [Compound 416] | 3.6 | 1.6 | 2.6 | –
5 | COc1cccc(NC(=O)N/C=C/c2cccc(C(F)(F)F)c2)c1 [Compound 417] | 10.8 | 14.6 | 12.2 | –
6 | O=C(N/C=C/c1cccc(C(F)(F)F)c1)Nc1ccc2c(c1)OCO2 [Compound 418] | – | – | – | IC50 at 72 h ([1]; Table 2.3): > 20 µM; IC50 at 72 h ([2]; Table 2.3): > 20 µM; IC50 at 72 h ([3]; Table 2.3): > 20 µM
7 | O=C(N/C=C/c1cccs1)Nc1ccc([N+](=O)[O-])c(C(F)(F)F)c1 [Compound 419] | – | – | – | IC50 at 72 h ([1]; Table 2.4): 4.1 µM; IC50 at 72 h ([2]; Table 2.4): 6.9 µM; IC50 at 72 h ([3]; Table 2.4): 3.2 µM
8 | O=C(N/C=C/c1cccs1)Nc1cccc(C(F)(F)F)c1 [Compound 420] | – | – | – | IC50 at 72 h ([1]; Table 2.4): 12.3 µM; IC50 at 72 h ([2]; Table 2.4): 12.3 µM; IC50 at 72 h ([3]; Table 2.4): 6.4 µM
9 | N#Cc1ccc(NC(=O)N/C=C/c2ccc(C(F)(F)F)cc2)cc1C(F)(F)F [Compound 421] | 7.2 | 1.4 | 3.4 | –
10 | N#Cc1ccc(NC(=O)N/C=C/c2cccs2)cc1 [Compound 424] | – | – | – | IC50 at 72 h ([1]; Table 2.4): 16.7 µM; IC50 at 72 h ([2]; Table 2.4): 14.4 µM; IC50 at 72 h ([3]; Table 2.4): 5 µM
11 | O=C(N/C=C/c1ccccc1C(F)(F)F)Nc1ccc2c(c1)OCO2 [Compound 427] | – | – | – | IC50 at 72 h ([2]; Table 2.3): 19.2 µM; IC50 at 72 h ([3]; Table 2.3): 9.5 µM
12 | COc1cccc(NC(=O)N/C=C/c2ccccc2C(F)(F)F)c1 [Compound 429] | 16.4 | 9.1 | 14.9 | –
13 | COc1cccc(/C=C/NC(=O)Nc2cccc(OC)c2)c1 [Compound 430] | > 20 | > 20 | – | –
14 | N#Cc1ccc(NC(=O)N/C=C/c2cccc(F)c2)cc1C(F)(F)F [Compound 433] | 3.2 | 1.9 | 3.9 | –
15 | CN(C)c1ccc(NC(=O)N/C=C/c2cccc(C(F)(F)F)c2)cc1 [Compound 435] | > 20 | 13.1 | 20 | –
16 | O=C(N/C=C/c1cc(C(F)(F)F)ccc1C(F)(F)F)Nc1ccc([N+](=O)[O-])c(C(F)(F)F)c1 [Compound 436] | 0.8 | 0.5 | 0.7 | –
17 | O=C(N/C=C/c1cccc(OC(F)(F)F)c1)Nc1ccc([N+](=O)[O-])c(C(F)(F)F)c1 [Compound 437] | 2.7 | 1.6 | 3 | –
18 | O=C(N/C=C/c1cc(C(F)(F)F)cc(C(F)(F)F)c1)Nc1ccc([N+](=O)[O-])c(C(F)(F)F)c1 [Compound 438] | 0.6 | 0.5 | 0.9 | –
19 | COc1cc([N+](=O)[O-])ccc1NC(=O)N/C=C/c1cccc(C(F)(F)F)c1 [Compound 441] | 8.3 | 4.8 | 6.7 | –
20 | Cc1ccccc1NC(=O)N/C=C/c1cccc(C(F)(F)F)c1 [Compound 445] | 5.2 | 4.1 | 4.8 | –
21 | O=C(N/C=C/c1cccc(C(F)(F)F)c1)Nc1ccc(-n2ccnc2)cc1 [Compound 446] | 18.4 | 11.1 | > 20 | –
22 | O=C(N/C=C/c1cccc(C(F)(F)F)c1)Nc1ccc([N+](=O)[O-])cc1 [Compound 449] | 5.3 | 2.1 | 3.9 | –

Row | Compound | IC50 (22Rv1 cells; Table 2.2) [µM] | IC50 (LNCaP cells; Table 2.2) [µM] | IC50 (DU145 cells; Table 2.2) [µM] | other results
23 | O=C(N/C=C/c1cccc([N+](=O)[O-])c1)Nc1ccc([N+](=O)[O-])c(C(F)(F)F)c1 [Compound 456] | 4.1 | 2 | 5.2 | –
24 | O=C(N/C=C/c1cccc(C(F)(F)F)c1)NCCc1cccc(C(F)(F)F)c1 [Compound 459] | – | – | – | IC50 at 72 h ([2]; Table 2.4): > 10 µM; IC50 at 72 h ([3]; Table 2.4): 7.1 µM
25 | Nc1ccc(NC(=O)N/C=C/c2ccc(C(F)(F)F)cc2)cc1 [Compound 462] | 6.3 | 3.5 | 3.2 | –
26 | N#Cc1ccc(NC(=O)N/C=C/c2cc(C(F)(F)F)cc(C(F)(F)F)c2)cc1C(F)(F)F [Compound 463] | 1 | 1.2 | 1.2 | –
27 | N#Cc1ccc(NC(=O)N/C=C/c2cc(C(F)(F)F)ccc2C(F)(F)F)cc1C(F)(F)F [Compound 464] | 0.7 | 0.4 | 0.4 | –
28 | N#Cc1ccc(NC(=O)Nc2ccc([N+](=O)[O-])c(C(F)(F)F)c2)cc1C(F)(F)F [Compound 465] | – | – | – | IC50 (22Rv1 cells; 22Rv1 cells, Table 4.2): 5.2 µM; IC50 (DU145 cells; DU145 cells, Table 4.2): 5.3 µM; IC50 (LNCaP cells; LNCaP cells, Table 4.2): 4.1 µM
29 | N#Cc1ccc(NC(=O)N/C=C/c2cc(C(F)(F)F)ccc2C(F)(F)F)cc1 [Compound 468] | 1.9 | 0.9 | 1.5 | –
30 | N#Cc1ccc(NC(=O)N/C=C/c2cc(C(F)(F)F)cc(C(F)(F)F)c2)cc1 [Compound 469] | 1.9 | 1 | 1.7 | –
31 | N#Cc1ccc(NC(=O)N/C=C/c2cc(C(F)(F)F)ccc2C(F)(F)F)cn1 [Compound 480] | – | – | – | IC50 (22Rv1 cells; Table 2.1): 1.8 µM; IC50 (DU145 cells; Table 2.1): 1.7 µM
32 | N#Cc1ccc(NC(=O)N/C=C/c2cc(C(F)(F)F)ccc2C(F)(F)F)nc1 [Compound 481] | – | – | – | IC50 (22Rv1 cells; Table 2.1): 2.6 µM; IC50 (DU145 cells; Table 2.1): 0.8 µM
33 | N#Cc1ccc(NC(=O)N/C=C/c2cc(C(F)(F)F)cc(C(F)(F)F)c2)nc1 [Compound 483] | – | – | – | IC50 (22Rv1 cells; Table 2.1): 2.3 µM; IC50 (DU145 cells; Table 2.1): 2 µM
34 | N#Cc1ccc(NC(=O)Nc2cc(C(F)(F)F)cc(C(F)(F)F)c2)cc1C(F)(F)F [Compound 494] | – | – | – | IC50 (22Rv1 cells; 22Rv1 cells, Table 4.2): 1.6 µM; IC50 (DU145 cells; DU145 cells, Table 4.2): 1.5 µM; IC50 (LNCaP cells; LNCaP cells, Table 4.2): 0.3 µM
35 | N#Cc1ccc(NC(=O)Nc2cc(C(F)(F)F)cc(C(F)(F)F)c2)cc1Cl [Compound 500] | – | – | – | IC50 (22Rv1 cells; 22Rv1 cells, Table 4.2): 0.4 µM; IC50 (DU145 cells; DU145 cells, Table 4.2): 1.3 µM; IC50 (LNCaP cells; LNCaP cells, Table 4.2): 0.2 µM
36 | N#Cc1ccc(NC(=O)Nc2ccc(C(F)(F)F)cc2)cc1Cl [Compound 502] | – | – | – | IC50 (22Rv1 cells; 22Rv1 cells, Table 4.2): 2.2 µM; IC50 (DU145 cells; DU145 cells, Table 4.2): 4.1 µM; IC50 (LNCaP cells; LNCaP cells, Table 4.2): 1.2 µM
37 | O=C(N/C=C/c1cc(C(F)(F)F)cc(C(F)(F)F)c1)Nc1cccnc1 [Compound 503] | – | – | – | IC50 (22Rv1 cells; Table 2.1): 11.3 µM; IC50 (DU145 cells; Table 2.1): 9.5 µM; IC50 (LNCaP cells; Table 2.1): 7.5 µM
38 | N#Cc1ccc(NC(=O)Nc2ccc(C(F)(F)F)cc2)cc1C(F)(F)F [Compound 509] | – | – | – | IC50 (22Rv1 cells; 22Rv1 cells, Table 4.2): 1.6 µM; IC50 (DU145 cells; DU145 cells, Table 4.2): 5.4 µM; IC50 (LNCaP cells; LNCaP cells, Table 4.2): 0.7 µM
39 | N#Cc1ccc(NC(=O)N/C=C/c2cccc(C(F)(F)F)c2)cn1 [Compound 510] | – | – | – | IC50 (22Rv1 cells; Table 2.1): 6.6 µM; IC50 (DU145 cells; Table 2.1): 5.7 µM; IC50 (LNCaP cells; Table 2.1): 3.3 µM
40 | O=C(N/C=C/c1cc(C(F)(F)F)cc(C(F)(F)F)c1)Nc1ncccc1Br [Compound 527] | – | – | – | IC50 (22Rv1 cells; Table 2.1): 7.6 µM; IC50 (DU145 cells; Table 2.1): 6.8 µM; IC50 (LNCaP cells; Table 2.1): 5.3 µM
41 | O=C(N/C=C/c1cc(C(F)(F)F)cc(C(F)(F)F)c1)Nc1ncccn1 [Compound 531] | – | – | – | IC50 (DU145 cells; Table 2.1): < 1 µM; IC50 (LNCaP cells; Table 2.1): < 1 µM
42 | O=C(N/C=C/c1cc(C(F)(F)F)cc(C(F)(F)F)c1)Nc1cnccc1Cl [Compound 533] | – | – | – | IC50 (22Rv1 cells; Table 2.1): 10.9 µM; IC50 (DU145 cells; Table 2.1): 6.5 µM; IC50 (LNCaP cells; Table 2.1): 2 µM
43 | O=C(N/C=C/c1cc(C(F)(F)F)cc(C(F)(F)F)c1)Nc1cncc(F)c1 [Compound 535] | – | – | – | IC50 (22Rv1 cells; Table 2.1): 3.1 µM; IC50 (DU145 cells; Table 2.1): 3 µM; IC50 (LNCaP cells; Table 2.1): 2.6 µM
44 | O=C(N/C=C/c1cc(C(F)(F)F)cc(C(F)(F)F)c1)Nc1nccc(C(F)(F)F)n1 [Compound 538] | – | – | – | IC50 (DU145 cells; Table 2.1): 1.2 µM; IC50 (LNCaP cells; Table 2.1): < 1 µM
